Test results: paper PMC3726336, “Product inhibition of cellulases studied with ^14C-labeled cellulose substrates” (Biotechnology for Biofuels, 2013)
Read-outs that look alike come from different tables or passages of the source.

Experiments:
TrCel6A = target: T1, TrCel6A (Trichoderma reesei, UniProt P07987); assay: Inhibition of hydrolysis of 14C-BMCC by TrCel6A; format: biochemical
T1 construct: TrCel6A was purified from the culture filtrate of Tr QM 9414 as described previously; made in house; host or cells: Trichoderma reesei QM 9414 culture filtrate (native producer)
Source text: Here, we characterized the cellobiose and glucose inhibition of TrCel6A and its thermophilic counterpart, CtCel6A [9, 63]. First, the cellobiose inhibition of the synergistic hydrolysis of ^14C-BC by TrCel6A and TrCel5A was studied (Figure 7A). As TrCel6A was less sensitive to cellobiose inhibition than TrCel7A, the contribution of the cellobiose released during hydrolysis was not significant, and an average (DCB/DCB=0) over all time points was used in plotting (DCB/DCB=0) versus [cellobiose] (Figure 7D). No significant systematic variation of DCB/DCB=0 depending on hydrolysis time was observed. As in the case of GH7 CBHs, the IC50 value was found using Equations 5 and 6. Because the IC50 value for synergistic hydrolysis (Table 3) was of the same order as the apparent Ki value reported for TrCel5A [31], we further tested the inhibition of individual TrCel6A. BC is not a good substrate for TrCel6A, but its acid-treated derivative, BMCC, is readily degraded by the enzyme. Therefore, we prepared ^14C-BMCC by the heterogeneous acid hydrolysis of ^14C-BC. […]
GH6 CBHs were assessed by observing the hydrolysis of ^14C-BMCC. ^14C-BMCC (0.25 g l^-1) was incubated (with shaking at 350 rpm) with CBH (0.25 μM) and N188BG (0.06 μM) in 50 mM sodium acetate buffer, pH 5.0, containing BSA (0.1 g l^-1). […]

CtCel7A = CtCel7A (Chaetomium thermophilum, UniProt A7WNU1); assay: Inhibition of synergistic hydrolysis of 14C-BC by CtCel7A (supplemented with EG TrCel5A); format: biochemical; details: 14C-BC substrate, read-out: IC50 for cellobiose
Description: To study the cellobiose inhibition of GH7 CBHs, the synergistic hydrolysis of ^14C-BC in the presence of added cellobiose was followed (Figure 3, Additional file 1: Figures S1 and S2). Because the cellobiose inhibition of the EG TrCel5A is much weaker than that of GH7 CBHs, the inhibition of synergistic hydrolysis apparently reflects the inhibition of CBH. The strength of cellobiose inhibition was analyzed using plots of (DCB/DCB=0) versus [cellobiose], where DCB and DCB=0 represent the degree of conversion of ^14C-BC in the presence and absence of cellobiose, respectively (Figure 4, Additional file 1: Figure S3). In the case of experiments without added cellobiose, the reactions were provided with N188BG to prevent the inhibition of the CBH by the cellobiose released during hydrolysis. Experiments with no added cellobiose and without BG were also conducted. […] Therefore, the concentration of the cellobiose released during hydrolysis was added to the concentration of externally supplied cellobiose in generating the plots in Figure 4 and Additional file 1: Figure S3. For the calculation of IC50 values, the data were first fitted to hyperbolae:
where [CB] is the concentration of cellobiose; [^14CBC] is the concentration of ^14C-BC used in the experiment; and C1, C2 and H are empirical constants. Equation 5 differs from Equation 1 by the presence of constant H. H was included to improve the fit and is a constant that accounts for the background radioactivity (the degree of conversion that is independent of CBH). The degree of conversion resulting from the activity of the EG was measured in a separate experiment (Additional file 1: Figure S4) and was subtracted from the degree of conversion resulting from the synergistic hydrolysis. Thus, in the case of complete inhibition, H should have a value of zero. […] Provided with the values of C1, C2 and H, the value of IC50 was calculated as follows: […]
Using the time course data measured in the presence and absence of cellobiose, the IC50 values were first found separately for each time point (Figure 4A). […]

CtCel7A, sequence (A7WNU1 entry or part of it): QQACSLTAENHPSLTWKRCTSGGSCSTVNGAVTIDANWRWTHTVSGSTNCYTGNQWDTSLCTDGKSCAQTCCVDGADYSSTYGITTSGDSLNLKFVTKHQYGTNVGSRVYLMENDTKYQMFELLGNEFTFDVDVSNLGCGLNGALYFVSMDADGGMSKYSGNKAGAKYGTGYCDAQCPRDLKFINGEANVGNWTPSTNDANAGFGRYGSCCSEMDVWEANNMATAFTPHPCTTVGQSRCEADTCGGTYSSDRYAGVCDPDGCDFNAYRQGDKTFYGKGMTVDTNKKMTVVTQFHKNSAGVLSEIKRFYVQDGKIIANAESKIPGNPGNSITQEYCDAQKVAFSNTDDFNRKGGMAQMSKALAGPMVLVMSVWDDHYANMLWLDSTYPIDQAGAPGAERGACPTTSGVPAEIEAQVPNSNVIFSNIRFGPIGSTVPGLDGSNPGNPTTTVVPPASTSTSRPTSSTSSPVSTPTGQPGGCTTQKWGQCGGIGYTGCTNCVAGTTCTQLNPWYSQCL
T1 sequence (P07987 25-471): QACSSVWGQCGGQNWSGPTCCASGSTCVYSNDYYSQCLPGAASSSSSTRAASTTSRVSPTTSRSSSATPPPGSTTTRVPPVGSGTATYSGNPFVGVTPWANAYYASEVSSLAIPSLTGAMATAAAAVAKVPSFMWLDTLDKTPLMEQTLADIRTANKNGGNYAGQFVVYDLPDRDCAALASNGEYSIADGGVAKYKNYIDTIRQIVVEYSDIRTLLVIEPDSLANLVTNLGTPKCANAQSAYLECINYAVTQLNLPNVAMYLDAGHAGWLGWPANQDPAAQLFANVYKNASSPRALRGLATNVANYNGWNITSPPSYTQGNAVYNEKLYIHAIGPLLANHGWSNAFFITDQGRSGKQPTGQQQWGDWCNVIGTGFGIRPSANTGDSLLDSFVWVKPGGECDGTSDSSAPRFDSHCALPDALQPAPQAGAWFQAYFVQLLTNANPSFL

Structure (SMILES): O=C[C@H](O)[C@@H](O)[C@H](O[C@@H]1O[C@H](CO)[C@@H](O)[C@H](O)[C@H]1O)[C@H](O)CO [cellobiose, Cellobiose]
- IC50 (TrCel6A): 20000 ± 1400 µM
- IC50 (CtCel7A; 25°C): 410 ± 60 µM
- IC50 (CtCel7A; 35°C): 1080 ± 220 µM
- IC50 (CtCel7A; 50°C, IC50 increased with hydrolysis time): 2480 ± 910 µM
